According to ChEMBL document CHEMBL4483862, “Open-source discovery of chemical leads for next-generation chemoprotective antimalarials” (2018):

System: Plasmodium berghei
Experiment: Luciferase/luciferin-expressing antifolate-resistant parasites were used to infect a culture of HepG2 cells that were pre-incubated with compounds. Infected hepatocytes emit light due to the luciferase reaction. Assay results are presented as the percent inhibition of light emission compared to control. […]
Type: functional
Settings: sporozoite; for IC90: read-out: LUCIFERASE INFECTION ASSAY - IC90
[1] = read-out: LUCIFERASE INFECTION ASSAY - IC50

Row | Structure (SMILES) | IC90 [µM] | IC50 [1] [µM] | further results
1 | CN(C)c1ccc(CNCC2(c3ccnc(-c4cccc(N(C)C)c4)c3)CC2)cc1 | > 10 |  | IC50 (PBLUC_HILL_SLOPE 3.17, PBLUC_R_SQUARED 0.141, read-out: LUCIFERASE INFECTION ASSAY - IC50): 9.64 µM
2 | COc1ccc(-c2cnc(N)c(-c3cccnc3)c2)cc1OC | 9.72 |  | IC50 (HEPG2TOX_HILL_SLOPE 1.35, HEPG2TOX_R_SQUARED 0.969, PBLUC_HILL_SLOPE 2.37, PBLUC_R_SQUARED 0.379, read-out: LUCIFERASE INFECTION ASSAY - IC50): 3.85 µM
3 | CC1=CC(=O)N(c2cc(Cl)cc(Cl)c2)C1=O | > 12.9 | > 12.9 | 
4 | CC(=O)Nc1ccc(-c2cnc3ccc(-c4cccnc4)nn23)cc1 | 1.22 | 0.572 | 
5 | COc1ccc(Cl)cc1C(=O)NNC(=O)c1oc2ccccc2c1CSC1CCCCC1 | > 10 |  | IC50 (FFLUC_HILL_SLOPE 11.7, FFLUC_R_SQUARED 0.493, read-out: LUCIFERASE INFECTION ASSAY - IC50): > 10 µM
6 | COc1ccc(Cl)cc1NC(=O)CCN1CCN(c2ncc(C(F)(F)F)cc2Cl)CC1 | 9.88 | 4.95 | 
7 | COC(=O)c1occc1CSc1nc2ccc(Br)cc2c(=O)n1-c1ccccc1 | > 10 |  | IC50 (PBLUC_HILL_SLOPE 130, PBLUC_R_SQUARED 0.0623, read-out: LUCIFERASE INFECTION ASSAY - IC50): 10 µM
8 | Cc1cc(-c2cccc3[nH]c(C(F)(F)F)nc23)nn1C(=O)c1ccc([N+](=O)[O-])cc1 | > 10 |  | IC50 (FFLUC_HILL_SLOPE 35.5, FFLUC_R_SQUARED 0.403, HEPG2TOX_HILL_SLOPE 0.192, HEPG2TOX_R_SQUARED 0.301, PBLUC_HILL_SLOPE 13.6, PBLUC_R_SQUARED 0.349, read-out: LUCIFERASE INFECTION ASSAY - IC50): 9.27 µM
9 | COc1ccccc1CNc1ccnc2cc(Cl)ccc12 | 3.82 |  | IC50 (HEPG2TOX_HILL_SLOPE 2.2, HEPG2TOX_R_SQUARED 0.908, PBLUC_HILL_SLOPE 13.6, PBLUC_R_SQUARED 0.424, read-out: LUCIFERASE INFECTION ASSAY - IC50): 3.25 µM
10 | Cc1nn(CC(=O)Nc2cccc(C(F)(F)F)c2)c(C)c1Oc1ccccc1 | 8.01 | 3.94 | 
11 | Cc1ccc(-c2csc(NC(=O)C3CCN(c4ncnc5sc(C)c(C)c45)CC3)n2)cc1 | 1.74 |  | IC50 (FFLUC_HILL_SLOPE 3.71, FFLUC_R_SQUARED 0.648, HEPG2TOX_HILL_SLOPE 2.17, HEPG2TOX_R_SQUARED 0.62, PBLUC_HILL_SLOPE 8.52, PBLUC_R_SQUARED 0.61, read-out: LUCIFERASE INFECTION ASSAY - IC50): 1.35 µM
12 | CC1=C(c2nc(-c3ccc(C)cc3)no2)C(c2ccco2)NC(=S)N1 (configuration not stated) | > 10 |  | IC50 (HEPG2TOX_HILL_SLOPE 4.63, HEPG2TOX_R_SQUARED 0.779, PBLUC_HILL_SLOPE 2.07, PBLUC_R_SQUARED 0.517, read-out: LUCIFERASE INFECTION ASSAY - IC50): 7.61 µM
13 | Cc1ccc(S(=O)(=O)Oc2cc(C)ccc2C)cc1 | > 11.9 |  | IC50 (PBLUC_HILL_SLOPE 0.836, PBLUC_R_SQUARED 0.347, read-out: LUCIFERASE INFECTION ASSAY - IC50): 4.27 µM
14 | O=C(Cc1csc(-c2ccc(C(F)(F)F)cc2)n1)NCc1cnn(-c2ccccc2)c1 | > 10 | > 10 | 
15 | O=C(Nc1cccc2c[nH]nc12)c1ccc([N+](=O)[O-])s1 | 7.56 |  | IC50 (HEPG2TOX_HILL_SLOPE 0.563, HEPG2TOX_R_SQUARED 0.653, PBLUC_HILL_SLOPE 2.36, PBLUC_R_SQUARED 0.303, read-out: LUCIFERASE INFECTION ASSAY - IC50): 2.98 µM
16 | O=C(NC(c1ccccc1)c1ccccc1)[C@@H]1C[C@@H](OCc2ccccc2)CN1CC1CCCCC1 | > 6.84 |  | IC50 (FFLUC_HILL_SLOPE 11.2, FFLUC_R_SQUARED 0.284, read-out: LUCIFERASE INFECTION ASSAY - IC50): > 6.84 µM
17 | COc1ccc(NC(=O)c2cc(N(C)Cc3ccccc3)ncn2)cn1 | 7.26 |  | IC50 (HEPG2TOX_HILL_SLOPE 2.56, HEPG2TOX_R_SQUARED 0.944, PBLUC_HILL_SLOPE 1.8, PBLUC_R_SQUARED 0.498, read-out: LUCIFERASE INFECTION ASSAY - IC50): 2.14 µM
18 | CNc1nc2cnc(Nc3cccc(OC(F)(F)F)c3)cc2n1CCOC | > 10 |  | IC50 (HEPG2TOX_HILL_SLOPE 6.78, HEPG2TOX_R_SQUARED 0.0669, read-out: LUCIFERASE INFECTION ASSAY - IC50): > 10 µM
19 | COc1cc(/C=C2\C=c3ccccc3=C2O)cc(Cl)c1OC(C)C | > 10 | > 10 | 
20 | Cc1nc2ncnn2c(C)c1CC(=O)NCCCSc1ccc(F)cc1 | > 10 | > 10 | 
21 | COc1ccc(Oc2ccc(/C=C/C(=O)c3ccc(N4CCN(C)CC4)cc3)cc2[N+](=O)[O-])cc1 | 4.34 |  | IC50 (HEPG2TOX_HILL_SLOPE 14.7, HEPG2TOX_R_SQUARED 0.729, PBLUC_HILL_SLOPE 20.7, PBLUC_R_SQUARED 0.331, read-out: LUCIFERASE INFECTION ASSAY - IC50): 3.9 µM

Row | Structure (SMILES) | IC90 [µM] | IC50 [1] [µM] | further results
22 | CCc1sc2nc(SCC(=O)NC(C)(C#N)C(C)C)n(Cc3ccc(C)cc3)c(=O)c2c1C (configuration not stated) | > 10 |  | IC50 (FFLUC_HILL_SLOPE 10, FFLUC_R_SQUARED 0.698, read-out: LUCIFERASE INFECTION ASSAY - IC50): > 10 µM
23 | CC(C)(C)c1ccc(-c2nc(-c3ccc(C(F)(F)F)cc3)cs2)cc1 | > 9.13 |  | IC50 (FFLUC_HILL_SLOPE 12.9, FFLUC_R_SQUARED 0.362, PBLUC_HILL_SLOPE 0.825, PBLUC_R_SQUARED 0.291, read-out: LUCIFERASE INFECTION ASSAY - IC50): 3.25 µM
24 | Cc1cn2c(CC(=O)Nc3ccc(C(F)(F)F)cc3)csc2n1 | 5.2 |  | IC50 (FFLUC_HILL_SLOPE 1.95, FFLUC_R_SQUARED 0.137, HEPG2TOX_HILL_SLOPE 2.23, HEPG2TOX_R_SQUARED 0.859, PBLUC_HILL_SLOPE 8.61, PBLUC_R_SQUARED 0.683, read-out: LUCIFERASE INFECTION ASSAY - IC50): 4.03 µM
25 | Cc1cc(C)nc(N/N=C/c2c(C)nn(-c3ccccc3)c2Sc2nc3ccccc3s2)n1 | > 10 | > 10 | 
26 | CCn1cc(C(=O)OCC(=O)N2N=C3/C(=C/c4ccccc4)CCCC3C2c2ccccc2)c(=O)c2ccc(C)nc21 (configuration not stated) | 9.47 |  | IC50 (FFLUC_HILL_SLOPE 4.43, FFLUC_R_SQUARED 0.284, HEPG2TOX_HILL_SLOPE 6.55, HEPG2TOX_R_SQUARED 0.133, PBLUC_HILL_SLOPE 3.84, PBLUC_R_SQUARED 0.345, read-out: LUCIFERASE INFECTION ASSAY - IC50): 5.34 µM
27 | FC1(F)Oc2ccc(Nc3cc(-c4cc(Cl)cc(Cl)c4)ncn3)cc2OC1(F)F | > 7.4 |  | IC50 (HEPG2TOX_HILL_SLOPE 15.2, HEPG2TOX_R_SQUARED 0.834, PBLUC_HILL_SLOPE 14.8, PBLUC_R_SQUARED 0.0861, read-out: LUCIFERASE INFECTION ASSAY - IC50): 6.88 µM
28 | Oc1ccc2ccccc2c1/C=N/Nc1nnc(-c2ncc[nH]2)c2ccccc12 | 4.64 |  | IC50 (HEPG2TOX_HILL_SLOPE 2.06, HEPG2TOX_R_SQUARED 0.877, PBLUC_HILL_SLOPE 10.4, PBLUC_R_SQUARED 0.915, read-out: LUCIFERASE INFECTION ASSAY - IC50): 3.76 µM
29 | FC(F)(F)c1nc(N2CCN(c3ccncc3)CC2)c2ccccc2n1 | > 10 |  | IC50 (PBLUC_HILL_SLOPE 1.73, PBLUC_R_SQUARED 0.515, read-out: LUCIFERASE INFECTION ASSAY - IC50): 4.07 µM
30 | CN(C)CCNC(=O)c1ccc(-c2cn3c(-c4cccc(Cl)c4)cnc3cn2)cc1 | > 7.86 | > 7.86 | 
31 | Cc1cccc(COC(=O)C2CCN(C3=NS(=O)(=O)c4ccccc43)CC2)c1 | > 10 | > 10 | 
32 | Fc1ccc(-c2cnn3c(NCc4cccs4)ccnc23)cc1Cl | 7.94 |  | IC50 (PBLUC_HILL_SLOPE 0.723, PBLUC_R_SQUARED 0.681, read-out: LUCIFERASE INFECTION ASSAY - IC50): 0.38 µM
33 | CCNC(=O)C1CCCN(Cc2noc(-c3ccccc3OC)n2)CC1 (configuration not stated) | > 9.21 | > 9.21 | 
34 | O=C(/C=C/c1ccc(-c2ccccc2Cl)s1)N1CCN(c2ncccn2)CC1 | > 10 |  | IC50 (HEPG2TOX_HILL_SLOPE 11.1, HEPG2TOX_R_SQUARED 0.736, PBLUC_HILL_SLOPE 11.3, PBLUC_R_SQUARED 0.239, read-out: LUCIFERASE INFECTION ASSAY - IC50): 9.23 µM
35 | O=[N+]([O-])c1cc(/C=N/O)ccc1Oc1ccc(Cl)cc1 | > 11.3 |  | IC50 (PBLUC_HILL_SLOPE 1.72, PBLUC_R_SQUARED 0.416, read-out: LUCIFERASE INFECTION ASSAY - IC50): 6.18 µM
36 | Cc1sc2nc(CSc3ccc([N+](=O)[O-])c(C(F)(F)F)c3)nc(O)c2c1C | 8.65 |  | IC50 (HEPG2TOX_HILL_SLOPE 3.24, HEPG2TOX_R_SQUARED 0.988, PBLUC_HILL_SLOPE 5.99, PBLUC_R_SQUARED 0.334, read-out: LUCIFERASE INFECTION ASSAY - IC50): 5.99 µM
37 | CC(OC(=O)/C=C/c1ccc2ccccc2n1)C(=O)NC1CCCc2ccccc21 (configuration not stated) | > 10 | > 10 | 
38 | C=CCNC(=S)N1CCc2sccc2C1c1ccc(OC)cc1 (configuration not stated) | > 9.58 |  | IC50 (PBLUC_HILL_SLOPE 0.135, PBLUC_R_SQUARED 0.112, read-out: LUCIFERASE INFECTION ASSAY - IC50): > 9.58 µM
39 | COc1ccc(-n2c(C)cc(C(=O)COC(=O)[C@@H](NS(=O)(=O)c3ccc4c(c3)OCCO4)C(C)C)c2C)cc1 | > 10 | > 10 | 
40 | COc1ccc(OCC(N)=NC(=S)Nc2cccc(C(F)(F)F)c2)cc1 | > 8.61 |  | IC50 (PBLUC_HILL_SLOPE 17.2, PBLUC_R_SQUARED 0.0649, read-out: LUCIFERASE INFECTION ASSAY - IC50): > 8.61 µM
41 | CCOC(=O)c1c(C)[nH]c(C(=O)C(C)Sc2nnc(-c3ccccc3)c(-c3ccccc3)n2)c1C (configuration not stated) | > 10 | > 10 | 
